Experimental data published in ChEMBL document CHEMBL5291721, “A preclinical secondary pharmacology resource illuminates target-adverse drug reaction associations of marketed drugs” (Nat Commun, 2023).

How the values were obtained:
Acetylcholinesterase = Acetylcholinesterase (Homo sapiens, UniProt P22303); format: functional
[1] = target: T1, Muscarinic acetylcholine receptor M2 (Homo sapiens, UniProt P08172)
T1 sequence (P08172 whole entry): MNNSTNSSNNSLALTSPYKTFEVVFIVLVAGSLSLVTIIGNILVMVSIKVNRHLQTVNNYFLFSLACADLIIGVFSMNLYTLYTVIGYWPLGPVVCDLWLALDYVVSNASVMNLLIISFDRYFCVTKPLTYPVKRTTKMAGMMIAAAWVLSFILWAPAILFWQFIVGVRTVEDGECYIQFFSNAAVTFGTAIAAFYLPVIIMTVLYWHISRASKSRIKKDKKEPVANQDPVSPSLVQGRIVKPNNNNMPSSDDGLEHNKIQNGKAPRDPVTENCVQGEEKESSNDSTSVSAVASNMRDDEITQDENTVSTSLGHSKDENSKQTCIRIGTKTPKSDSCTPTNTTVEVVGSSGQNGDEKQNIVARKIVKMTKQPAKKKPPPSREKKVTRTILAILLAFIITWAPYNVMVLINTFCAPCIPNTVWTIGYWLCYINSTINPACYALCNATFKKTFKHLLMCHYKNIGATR

[2] = target: T2, 5-hydroxytryptamine receptor 1A (Homo sapiens, UniProt P08908)
T2 sequence (P08908 whole entry): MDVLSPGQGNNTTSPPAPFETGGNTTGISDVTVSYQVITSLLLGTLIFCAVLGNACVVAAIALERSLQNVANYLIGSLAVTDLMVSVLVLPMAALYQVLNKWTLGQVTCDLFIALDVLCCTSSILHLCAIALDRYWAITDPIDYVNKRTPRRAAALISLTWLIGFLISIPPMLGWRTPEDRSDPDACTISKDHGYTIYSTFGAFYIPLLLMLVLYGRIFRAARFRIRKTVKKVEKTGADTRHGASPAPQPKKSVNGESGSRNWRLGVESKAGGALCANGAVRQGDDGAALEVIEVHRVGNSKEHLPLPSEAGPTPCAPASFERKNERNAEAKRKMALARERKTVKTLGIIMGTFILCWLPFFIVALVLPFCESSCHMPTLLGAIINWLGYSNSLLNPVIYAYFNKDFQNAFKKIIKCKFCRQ

[3] = target: 3',5'-cyclic-AMP phosphodiesterase 4A (Homo sapiens, UniProt P27815); format: functional
[4] = target: T3, Prostaglandin G/H synthase 1 (Homo sapiens, UniProt P23219); format: functional
[5] = target: T3, Prostaglandin G/H synthase 1; format: functional; remark: listed apart in the source
[6] = target: T4, Alpha-1A adrenergic receptor (Homo sapiens, UniProt P35348); format: functional, cell-based
T4 sequence (P35348 whole entry): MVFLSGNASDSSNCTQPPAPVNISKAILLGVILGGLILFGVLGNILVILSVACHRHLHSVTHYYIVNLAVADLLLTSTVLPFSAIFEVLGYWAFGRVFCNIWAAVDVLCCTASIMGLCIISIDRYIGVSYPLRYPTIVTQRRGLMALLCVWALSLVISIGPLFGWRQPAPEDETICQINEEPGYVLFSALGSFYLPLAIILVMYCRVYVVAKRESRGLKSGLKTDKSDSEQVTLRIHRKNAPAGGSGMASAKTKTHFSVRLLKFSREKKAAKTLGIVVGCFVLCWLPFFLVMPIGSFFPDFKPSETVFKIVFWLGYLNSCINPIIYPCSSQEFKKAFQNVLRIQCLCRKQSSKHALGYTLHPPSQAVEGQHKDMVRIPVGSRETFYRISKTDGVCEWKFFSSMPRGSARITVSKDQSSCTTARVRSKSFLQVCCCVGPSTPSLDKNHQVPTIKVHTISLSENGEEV

[7] = target: Gamma-aminobutyric acid receptor subunit alpha-1 (Rattus norvegicus, UniProt P62813); format: functional
[8] = target: 5-hydroxytryptamine receptor 2B (Homo sapiens, UniProt P41595); format: functional, cell-based
Progesterone receptor = target: T5, Progesterone receptor (Homo sapiens, UniProt P06401); format: functional
T5 sequence (P06401 whole entry): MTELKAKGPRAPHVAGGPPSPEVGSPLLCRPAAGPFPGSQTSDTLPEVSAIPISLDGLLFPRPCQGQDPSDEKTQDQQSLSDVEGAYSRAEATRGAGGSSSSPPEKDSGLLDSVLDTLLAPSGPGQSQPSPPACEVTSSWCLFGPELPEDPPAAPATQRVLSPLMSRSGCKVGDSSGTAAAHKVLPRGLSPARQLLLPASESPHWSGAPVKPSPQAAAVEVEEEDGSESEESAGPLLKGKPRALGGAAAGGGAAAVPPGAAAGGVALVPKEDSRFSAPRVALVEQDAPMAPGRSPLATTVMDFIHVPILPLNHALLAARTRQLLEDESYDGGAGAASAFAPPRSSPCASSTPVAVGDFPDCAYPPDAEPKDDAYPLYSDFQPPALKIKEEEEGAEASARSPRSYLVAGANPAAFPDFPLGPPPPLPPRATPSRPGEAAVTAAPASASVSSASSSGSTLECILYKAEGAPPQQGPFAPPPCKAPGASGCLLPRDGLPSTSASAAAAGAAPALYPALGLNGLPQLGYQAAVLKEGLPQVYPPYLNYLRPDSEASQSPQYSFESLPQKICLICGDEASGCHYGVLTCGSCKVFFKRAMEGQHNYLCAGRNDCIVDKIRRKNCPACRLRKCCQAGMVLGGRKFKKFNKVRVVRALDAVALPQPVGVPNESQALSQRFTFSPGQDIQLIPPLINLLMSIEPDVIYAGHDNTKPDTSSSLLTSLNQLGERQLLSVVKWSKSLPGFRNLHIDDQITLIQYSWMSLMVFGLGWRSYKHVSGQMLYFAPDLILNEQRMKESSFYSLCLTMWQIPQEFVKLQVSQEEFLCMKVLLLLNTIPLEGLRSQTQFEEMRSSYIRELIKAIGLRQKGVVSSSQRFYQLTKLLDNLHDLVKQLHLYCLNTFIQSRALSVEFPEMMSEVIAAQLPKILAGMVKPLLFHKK

[9] = target: Beta-2 adrenergic receptor (Homo sapiens, UniProt P07550)
Note: assay procedure not described here.

Chain of Acetylcholinesterase (P22303 whole entry): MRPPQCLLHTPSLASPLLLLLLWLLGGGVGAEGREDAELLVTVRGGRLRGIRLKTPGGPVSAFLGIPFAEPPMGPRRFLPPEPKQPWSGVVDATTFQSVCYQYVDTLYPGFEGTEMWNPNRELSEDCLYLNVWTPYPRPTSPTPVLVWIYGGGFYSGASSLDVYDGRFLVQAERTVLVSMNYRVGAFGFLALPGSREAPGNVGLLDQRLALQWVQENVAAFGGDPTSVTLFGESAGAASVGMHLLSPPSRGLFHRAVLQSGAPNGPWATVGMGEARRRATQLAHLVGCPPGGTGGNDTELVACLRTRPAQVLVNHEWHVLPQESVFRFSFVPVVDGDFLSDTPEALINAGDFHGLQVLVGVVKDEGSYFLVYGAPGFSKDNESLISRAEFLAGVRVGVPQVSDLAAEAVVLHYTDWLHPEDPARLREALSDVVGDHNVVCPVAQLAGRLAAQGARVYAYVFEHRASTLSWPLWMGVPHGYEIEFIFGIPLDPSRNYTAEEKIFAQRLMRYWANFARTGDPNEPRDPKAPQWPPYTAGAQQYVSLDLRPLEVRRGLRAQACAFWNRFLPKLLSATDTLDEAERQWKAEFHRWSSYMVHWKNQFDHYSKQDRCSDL
Chain of Gamma-aminobutyric acid receptor subunit alpha-1 (P62813 whole entry): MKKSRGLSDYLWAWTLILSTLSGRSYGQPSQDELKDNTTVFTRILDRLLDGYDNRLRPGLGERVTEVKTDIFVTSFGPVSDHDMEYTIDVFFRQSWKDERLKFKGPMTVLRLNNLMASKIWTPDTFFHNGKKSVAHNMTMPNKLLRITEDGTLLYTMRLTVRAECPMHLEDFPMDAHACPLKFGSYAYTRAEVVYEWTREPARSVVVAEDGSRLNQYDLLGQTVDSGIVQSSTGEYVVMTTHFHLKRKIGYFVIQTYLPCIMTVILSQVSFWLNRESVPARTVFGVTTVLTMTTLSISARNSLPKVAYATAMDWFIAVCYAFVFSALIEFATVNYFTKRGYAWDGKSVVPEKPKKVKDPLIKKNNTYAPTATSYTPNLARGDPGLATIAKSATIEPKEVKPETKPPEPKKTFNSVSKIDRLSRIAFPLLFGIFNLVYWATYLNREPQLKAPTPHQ
T3 sequence (P23219 whole entry): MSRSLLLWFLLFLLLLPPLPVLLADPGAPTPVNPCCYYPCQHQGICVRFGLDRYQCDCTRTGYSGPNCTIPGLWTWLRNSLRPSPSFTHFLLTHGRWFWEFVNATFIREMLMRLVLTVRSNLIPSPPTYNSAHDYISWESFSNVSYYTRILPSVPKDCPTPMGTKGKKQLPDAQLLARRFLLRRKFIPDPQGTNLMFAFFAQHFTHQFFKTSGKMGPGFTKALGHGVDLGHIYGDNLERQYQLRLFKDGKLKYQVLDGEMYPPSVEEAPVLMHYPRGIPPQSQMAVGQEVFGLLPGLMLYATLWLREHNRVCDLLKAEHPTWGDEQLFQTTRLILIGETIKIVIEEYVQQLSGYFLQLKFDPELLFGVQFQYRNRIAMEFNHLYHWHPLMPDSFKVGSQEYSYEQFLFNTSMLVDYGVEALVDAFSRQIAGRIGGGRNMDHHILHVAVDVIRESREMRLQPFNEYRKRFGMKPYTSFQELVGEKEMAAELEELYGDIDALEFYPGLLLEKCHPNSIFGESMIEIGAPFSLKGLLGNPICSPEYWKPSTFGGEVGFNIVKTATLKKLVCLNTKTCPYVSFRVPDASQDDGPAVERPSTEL
Chain of 5-hydroxytryptamine receptor 2B (P41595 whole entry): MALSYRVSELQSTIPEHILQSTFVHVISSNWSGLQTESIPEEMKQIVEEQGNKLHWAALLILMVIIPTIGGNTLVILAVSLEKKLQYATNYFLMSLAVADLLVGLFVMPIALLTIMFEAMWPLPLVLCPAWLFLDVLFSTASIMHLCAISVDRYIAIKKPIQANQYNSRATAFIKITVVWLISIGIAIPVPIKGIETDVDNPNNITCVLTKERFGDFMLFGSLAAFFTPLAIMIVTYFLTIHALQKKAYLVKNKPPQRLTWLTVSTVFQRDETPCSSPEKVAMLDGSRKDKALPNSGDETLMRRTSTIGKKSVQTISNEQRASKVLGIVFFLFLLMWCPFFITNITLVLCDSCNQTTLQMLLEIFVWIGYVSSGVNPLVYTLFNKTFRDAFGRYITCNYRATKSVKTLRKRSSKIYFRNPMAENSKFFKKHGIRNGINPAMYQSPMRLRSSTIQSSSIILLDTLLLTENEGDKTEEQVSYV
Chain of Beta-2 adrenergic receptor (P07550 whole entry): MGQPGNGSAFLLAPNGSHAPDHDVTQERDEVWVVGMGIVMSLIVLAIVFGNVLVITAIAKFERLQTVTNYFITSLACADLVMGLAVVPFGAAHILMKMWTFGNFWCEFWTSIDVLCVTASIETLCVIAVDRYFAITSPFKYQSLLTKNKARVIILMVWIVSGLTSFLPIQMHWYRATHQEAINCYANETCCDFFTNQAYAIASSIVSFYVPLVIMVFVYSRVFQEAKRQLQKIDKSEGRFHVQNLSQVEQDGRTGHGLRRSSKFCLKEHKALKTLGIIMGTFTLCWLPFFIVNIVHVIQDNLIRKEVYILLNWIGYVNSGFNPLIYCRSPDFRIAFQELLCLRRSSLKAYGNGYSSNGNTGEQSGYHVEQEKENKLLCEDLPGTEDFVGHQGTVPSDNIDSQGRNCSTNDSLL
Chain of 3',5'-cyclic-AMP phosphodiesterase 4A (P27815 whole entry): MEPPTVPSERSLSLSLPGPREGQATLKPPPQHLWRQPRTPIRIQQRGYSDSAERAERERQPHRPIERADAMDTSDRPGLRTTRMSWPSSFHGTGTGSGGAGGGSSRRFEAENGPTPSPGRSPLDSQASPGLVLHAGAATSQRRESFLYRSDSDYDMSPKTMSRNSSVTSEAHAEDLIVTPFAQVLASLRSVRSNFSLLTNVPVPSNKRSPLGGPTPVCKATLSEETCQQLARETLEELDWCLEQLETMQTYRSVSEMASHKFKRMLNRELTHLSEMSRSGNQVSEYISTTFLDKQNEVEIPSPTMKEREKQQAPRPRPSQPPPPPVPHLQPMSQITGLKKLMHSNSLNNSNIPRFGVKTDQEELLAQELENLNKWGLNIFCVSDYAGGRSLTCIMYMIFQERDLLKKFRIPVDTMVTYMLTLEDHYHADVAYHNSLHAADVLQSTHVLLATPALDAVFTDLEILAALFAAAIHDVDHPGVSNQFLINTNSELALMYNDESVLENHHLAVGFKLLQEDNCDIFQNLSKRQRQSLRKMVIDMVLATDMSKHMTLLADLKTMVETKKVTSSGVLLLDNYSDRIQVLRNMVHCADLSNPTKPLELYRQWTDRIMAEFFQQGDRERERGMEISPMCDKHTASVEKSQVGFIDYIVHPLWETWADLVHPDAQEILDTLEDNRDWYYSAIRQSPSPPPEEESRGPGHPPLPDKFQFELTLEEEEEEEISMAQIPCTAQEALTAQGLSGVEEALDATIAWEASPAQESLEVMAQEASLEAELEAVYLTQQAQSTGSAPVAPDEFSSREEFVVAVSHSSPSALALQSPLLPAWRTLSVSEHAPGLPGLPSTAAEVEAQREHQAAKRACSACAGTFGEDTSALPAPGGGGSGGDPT

| SMILES | AC50 (Acetylcholinesterase) [µM] | AC50 [1] [µM] | AC50 [2] [µM] | AC50 [3] [µM] | AC50 [4] [µM] | AC50 [5] [µM] | AC50 [6] [µM] | AC50 [7] [µM] | AC50 [8] [µM] | AC50 (Progesterone receptor) [µM] | AC50 [9] [µM] |
| --- | --- | --- | --- | --- | --- | --- | --- | --- | --- | --- | --- |
| CCN(CC)C(=S)S [DITIOCARB] | > 10 | > 30 | > 30 | > 30 | > 30 | 10.3 |  |  |  |  |  |
| C=C1CC[C@H](O)C/C1=C/C=C1\CCC[C@]2(C)[C@@H]([C@H](C)/C=C/[C@H](C)C(C)C)CC[C@@H]12 [ERGOCALCIFEROL] | > 30 | > 30 | > 30 | > 30 | 20.3 | > 30 |  |  |  |  |  |
| C[C@]12CC[C@@H]3c4ccc(O)cc4C[C@@H](CCCCCCCCC[S+]([O-])CCCC(F)(F)C(F)(F)F)[C@H]3[C@@H]1CC[C@@H]2O (stereo partly drawn) [FULVESTRANT] |  |  |  |  |  |  | > 30 | > 30 | > 30 | > 30 |  |
| CCC(=O)O[C@]1(C(=O)CCl)[C@@H](C)C[C@H]2[C@@H]3C[C@H](F)C4=CC(=O)C=C[C@]4(C)[C@@]3(F)[C@@H](O)C[C@@]21C [HALOBETASOL PROPIONATE] | > 30 | > 30 | > 30 | > 30 | > 30 | > 30 |  |  |  |  |  |
| CC(N)Cc1ccc(O)cc1 (stereo not drawn) [HYDROXYAMPHETAMINE] | > 30 | > 30 | > 30 | > 30 | > 30 | > 30 |  |  |  |  |  |
| Cc1cc(NC(=O)C2=C(O)c3ccccc3S(=O)(=O)N2C)no1 [ISOXICAM] | > 30 | > 30 | > 30 | > 30 | > 30 | > 30 |  |  |  |  |  |
| COc1cc2c(cc1OC)CC(=O)N(CCCN(C)C[C@H]1Cc3cc(OC)c(OC)cc31)CC2 [IVABRADINE] | > 30 | 3.35 | 5.81 | > 30 | > 30 | > 30 |  |  |  |  |  |
| CC(C)(C)NC[C@H](O)COc1cccc2c1CCCC2=O [LEVOBUNOLOL] | > 30 | > 30 | 0.886 | > 30 | > 30 | > 30 |  |  |  |  |  |
| CN(C)CCCNc1c2ccccc2nc2cccc([N+](=O)[O-])c12 [NITRACRINE] |  |  |  |  |  |  | > 30 | 18 | > 30 | > 30 | > 30 |
| Clc1ccc2c(N3CCN(CCCN4CCN(c5ccnc6cc(Cl)ccc56)CC4)CC3)ccnc2c1 [PIPERAQUINE] |  |  |  |  |  |  | > 30 | > 30 | > 30 | > 30 | > 30 |
| CC1(C)S[C@@H]2[C@H](NC(=O)[C@H](N)c3ccccc3)C(=O)N2[C@H]1C(=O)OCOC(=O)[C@@H]1N2C(=O)C[C@H]2S(=O)(=O)C1(C)C [SULTAMICILLIN] |  |  |  |  |  |  | > 30 | > 30 | > 30 | > 30 | > 30 |
| Cc1cccc(N2CC(CO)OC2=O)c1 (stereo not drawn) [TOLOXATONE] |  |  |  |  |  |  | > 30 | > 30 | > 30 | > 30 |  |
| CCC(C)C(CC)C(N)=O (stereo not drawn) [VALNOCTAMIDE] |  |  |  |  |  |  | > 30 | > 30 | > 30 | > 30 |  |
| CCOC(=O)C1=C[C@]2(CC)CCCN3CCc4c(n1c1ccccc41)[C@@H]32 [VINPOCETINE] |  |  |  |  |  |  | > 30 | > 30 | 13 | > 30 |  |
